Experimental data as given in patent publication US5104859A, “Continuous administration of adenosine to reduce pulmonary vascular resistance” (priority 1990, dated 1992).
“Also recorded” adds a separate entry of the source. Read-outs that look alike come from different tables or passages of the source.

Key:
cardiovascular system [1] = settings: bolus about 37.5 to 450 micrograms/kg; cited from earlier work
[2] = test system: atrio-ventricular (A-V) node; test: Atrio-ventricular conductance / heart block; assay type: in vivo, human
From the text: In accordance with this invention, adenosine may be administered to human patients by continuous intravenous infusion to provide significant vasodilation and without significant heart blockage under two conditions. First, the heart blocking action of adenosine is not detected during anesthesia when the rate of administration is 0.35 milligrams of adenosine per kilogram of body weight per minute or less. Second, the heart blocking action of adenosine is not detected, even in conscious patients, at rates of administration of about 0.10 milligram of adenosine per kilogram of body weight per minute or less.

[3] = test system: pulmonary vascular resistance; settings: systemic vasodilator doses
[4] = test system: mean arterial blood pressure; settings: dogs, cited from earlier work
[5] = test system: atrio-ventricular (A-V) node; settings: through blockage of the A-V node; cited from earlier work
[6] = Fredholm and Sollevi; cited from earlier work
[7] = Purine levels in arterial plasma before, during and after adenosine-induced controlled hypotension (HPLC); settings: in vivo
Description: Blood gases were measured with appropriate electrodes for pH, PCO2, and PO2 (Radiometer, Copenhagen). The hemoglobin concentration was determined spectrophotometrically. Samples for the determination of adenosine and its metabolites were collected as described by Sollevi et al., Acta Physiol. Scand., 120: 171-76 (1984). Adenosine and inosine were purified and analyzed by HPLC as described by Fredholm and Sollevi., J. Physiol. (London), 313: 351-67 (1981). Hypoxanthine, xanthine, and uric acid were analyzed by HPLC according to the method of Schweinsberg and Loo., J. Chromatogr., 181: 103-7 (1980). Arterial levels of dipyridamole were determined by HPLC. J. Chromatogr., 162: 98-103 (1979). Blood lactate was measured according to Tfelt-Hansen and Siggard-Andersen. Scand. Clin. Lab. Invest., 27:15-19 (1971).
Measurements and blood samplings were performed immediately before hypotension, as late as possible during hypotension (1-5 min before terminating the infusion) and approximately 30 min after the hypotensive period.
Dipyridamole (5 mg. per ml) was infused iv (0.3-0.4 mg. per kg. over a period of 5-10 min) approximately 20 minutes prior to the induction of controlled hypotension. […] (See Pedersen, J. Chromatogr., 162: 98-103 (1979).
The infusion was started at a rate of 0.01 mg. per kg. per minute, which was doubled at 15 second intervals until the desired MABP level of 40-50 mmHg was reached. […] Serum creatinine was determined before and on two consecutive days after operation. The standard ECG was recorded the day before and the day after operation.
The statistical significance (control 1 vs. adenosine and control 1 vs. control 2) was determined by Student's t test for paired data. A P value of <0.05 was regarded as significant.
The purine levels of nine of the patients were determined prior to, during and after adenosine-induced controlled hypotension.

[8] = test system: oxygen consumption and lactate; test: Oxygen contents, oxygen consumption and lactate during controlled hypotension; assay type: in vivo, human
Description: The correct position was verified by x-ray.
The hemoglobin concentration was determined spectrophotometrically. […] Scand., 120: 171-76 (1984). […] (London), 313: 351-67 (1981). […] Arterial levels of dipyridamole were determined by HPLC. J. Chromatogr., 162: 98-103 (1979). […] Scand. Clin. Lab. Invest., 27:15-19 (1971).
The mean hypotensive period was 32±8 min.
Oxygen content was derived from the formula SO2*× 1.34×Hb+PO2× […]. Foex et al., Br. J. Anesth., 42: 803-4 (1970). The arteriovenous oxygen content difference (AVDO2) was determined and used to calculate total oxygen consumption (VO2) as the product of AVDO2 and QT. *SO2 =Oxygen saturation.
Oxygen contents, consumptions and lactate concentrations in nine patients before, during and 30 minutes after controlled hypotension are summarized in Table III.

[9] = test system: pulmonary vascular resistance
myocardial blood flow = settings: 0.05 to about 0.1 mg/kg/min
From the text: Patients requiring abdominal vascular surgery, such as surgery for an aortic aneurysm, frequently also suffer from ischemic heart disease, or insufficient blood flow to the heart tissue, which may present undesirable complications in such surgery.
For such application, the rate of adenosine administration should be such that there is no more than a 10-20 per cent reduction in blood pressure.

Solubility of adenosine = assay type: physicochemical; settings: for solubility: read-out: solubility limit
[10] = Plasma half-life of adenosine; assay type: in vivo
cardiovascular system [11] = test: General activity profile of adenosine by continuous infusion; settings: for tachyphylaxis / rebound hypertension (words): hypotension
[12] = Control 2, 30 min after hypotension

## Nc1ncnc2c1ncn2[C@@H]1O[C@H](CO)[C@@H](O)[C@H]1O [adenosine]
Cardiovascular system [1]
  vasodilating action of injectable bolus: little detectable vasodilating action
[2]; about 0.10 mg/kg/min or less
  heart block in conscious patients: not detected
[2]; anesthesia, 0.35 mg/kg/min or less, 0.35 mg/kg
  heart block / blockage of A-V conductance during anesthesia: not detected; also recorded: does not occur; also recorded: no blockage of atrio-ventricular conductance is observed
[2]; continuous infusion
  A-V activity at vasodilating doses: significant useful vasodilating action at dosages below those at which it has significant A-V activity
[3]
  normal pulmonary vascular resistance: negligible or at most, minor effect
[4]; 50 ug/kg/minute adenosine
  mean arterial pressure with adenosine after dipyridamole: 40 mm/Hg
[4]; pilot study, as much as
  adenosine dose required for induction of hypotension without dipyridamole: 5 to 10 mg/kg/min
[5]
  heart block: produce heart block
[6]
  plasma half-life: 10 to 20 s
[7]; human, iv
  concentration: 2450 ± 650 nM
[7]
  time for arterial adenosine levels to return to control values after termination of infusion: 3 to 9 min
[8]
  decrease in AVDO2: 37±5%
  decrease in cerebral AVDO2: 37±13%
  decrease of VO2: 13±4%
[8]; [12]
  Arterial lactate concentration (La): 1.82 ± 0.20 mmol per liter
  Arterial oxygen tension (PaO2): 93.0 ± 5.2 mmHg
  Jugular arteriovenous lactate content difference (AVDj La): -0.06 ± 0.04 mmol per liter
  Jugular arteriovenous oxygen content difference (AVDj O2): 74.9 ± 7.7 ml. per liter
  Total arteriovenous oxygen content difference (AVDT O2): 46.8 ± 3.2 ml per liter
  Total oxygen consumption (VT O2): 235 ± 16 ml per mm.
[8]; during / after hypotension
  arterial lactate concentration: not affected; also recorded: minor increase
[8]; during adenosine
  Arterial lactate concentration (La): 1.73 ± 0.20 mmol per liter
  Arterial oxygen tension (PaO2): 97.5 ± 9.0 mmHg
  Jugular arteriovenous lactate content difference (AVDj La): -0.05 ± 0.05 mmol per liter
  Jugular arteriovenous oxygen content difference (AVDj O2): 58.1 ± 14.1 ml. per liter
  Total arteriovenous oxygen content difference (AVDT O2): 29.3 ± 2.5 ml per liter
  Total oxygen consumption (VT O2): 193 ± 16 ml per mm.
[8]; during hypotension
  arterial oxygen tension: remained unchanged
  arterio-jugular lactate content difference: unaltered
[9]; intravenous, hypoxic ventilation during anesthesia
  pulmonary vascular resistance in induced pulmonary hypertension: marked reduction
[9]; pig, in vivo
  systemic vasodilator effects, cardiac output, arterial oxygen at doses lowering pulmonary resistance: commonly do not result in detectable vasodilator effects or effects on cardiac output or arterial oxygen function
Myocardial blood flow
  increase of cardiac output: 10 to 20%
  reduction of blood pressure: 10 to 20 per cent
Myocardial blood flow; words
  oxygen consumption: without change in oxygen consumption
Solubility of adenosine; b421 prints mg/ml
  solubility limit: 5.5-6 milligrams per milliliter
  solubility: 5500 to 6000 µg/mL
Solubility of adenosine
  solubility: ~20 mM
[10]
  half-life: < 0.167 min
Cardiovascular system [11]; amounts used in accordance with the invention
  toxicity: essentially non-toxic
Cardiovascular system [11]; continuous infusion
  after-load and pre-load: little or no effect on cardiac pre-load; also recorded: reduce after-load, without having significant effect on pre-load
Cardiovascular system [11]
  tachyphylaxis / rebound hypertension (words): does not cause tachyphylaxis; also recorded: rebound hypertension is avoided
Cardiovascular system [11]; listed as Adenosine
  tachyphylaxis / rebound hypertension (words): without the occurrence of significant tachyphylaxis
Cardiovascular system [11]; in vivo
  heart rate on after-load reduction: without significantly increasing heart rate
